In PubChem BioAssay AID248 (DTP/NCI, 2004):
Values joined by “and” are separate entries in the source; they are usually repeats but may differ in a detail not shown here. Equal values may be shown once. Inconclusive results and toxic doses are left out. No stated cut-off is given here; in the data, active means T/C of 150% or more; inactive means T/C below 125%.

System: L1210 leukemia ip in BDF1 mice, survival T/C
Assay: NCI In Vivo Anticancer Drug Screen. Data for tumor model L1210 Leukemia (intraperitoneal) in B6D2F1 (BDF1) mice
Conditions: endpoint: mean survival time, higher = longer survival
In short: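 Survival endpoint. Drug-treated group vs vehicle group, expressed as T divided by C. Tumor passaged by transplantation.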

[1] = dose: 100.0 mg/kg/injection, schedule: Q01DX001 (ip), vehicle: saline
[2] = dose: 100.0 mg/kg/injection, schedule: Q04DX002 (ip), vehicle: saline
[3] = dose: 200.0 mg/kg/injection, schedule: Q01DX001 (ip), vehicle: saline
[4] = dose: 200.0 mg/kg/injection, schedule: Q04DX002 (ip), vehicle: saline
[5] = dose: 400.0 mg/kg/injection, schedule: Q01DX001 (ip), vehicle: saline
[6] = dose: 400.0 mg/kg/injection, schedule: Q04DX002 (ip), vehicle: saline
[7] = dose: 100.0 mg/kg/injection, schedule: Q04DX003 (ip), vehicle: Klucel (hydroxypropylcellulose) (HPC)
[8] = dose: 200.0 mg/kg/injection, schedule: Q04DX003 (ip), vehicle: Klucel (hydroxypropylcellulose) (HPC)
[9] = dose: 400.0 mg/kg/injection, schedule: Q04DX003 (ip), vehicle: Klucel (hydroxypropylcellulose) (HPC)
[10] = dose: 100.0 mg/kg/injection, schedule: Q01DX001 (ip), vehicle: Klucel (hydroxypropylcellulose) (HPC)
[11] = dose: 100.0 mg/kg/injection, schedule: Q04DX003 (ip), vehicle: saline
[12] = dose: 200.0 mg/kg/injection, schedule: Q04DX003 (ip), vehicle: saline
[13] = dose: 400.0 mg/kg/injection, schedule: Q04DX003 (ip), vehicle: saline

Measured: T/C

CC(=O)OCC1OC(N2C(=O)NC(=O)C3C4OC(=O)OC4C32)C(OC(C)=O)C1OC(C)=O (configuration not stated)
inactive: dose: 25.0 mg/kg/injection, schedule: Q01DX005 (ip), vehicle: other 108 % of control | dose: 50.0 mg/kg/injection, schedule: Q01DX005 (ip), vehicle: other 100 % of control | dose: 100.0 mg/kg/injection, schedule: Q01DX005 (ip), vehicle: other 106 % of control | dose: 200.0 mg/kg/injection, schedule: Q01DX005 (ip), vehicle: other 106 % of control | dose: 400.0 mg/kg/injection, schedule: Q01DX005 (ip), vehicle: other 108 % of control

C1=Nc2c(ccc3ccccc23)CS1
inactive: dose: 100.0 mg/kg/injection, schedule: Q04DX002 (ip), vehicle: other 93 % of control

CC[N+]1(CC)CC[N+](CC)(CC)CC1
inactive: [1] 97 % of control | [2] 96 % of control | [3] 97 % of control | [4] 96 % of control | [5] 102 % of control | [6] 107 % of control

Cc1ccc(/C=C2\NC(=O)NC2=O)cc1
inactive: dose: 25.0 mg/kg/injection, schedule: Q01DX009 (ip), vehicle: water 94 % of control | dose: 50.0 mg/kg/injection, schedule: Q01DX009 (ip), vehicle: water 93 % of control | dose: 100.0 mg/kg/injection, schedule: Q01DX009 (ip), vehicle: water 100 % of control | dose: 200.0 mg/kg/injection, schedule: Q01DX009 (ip), vehicle: water 94 % of control | dose: 400.0 mg/kg/injection, schedule: Q01DX009 (ip), vehicle: water 101 % of control

CN(C)c1ccc(/C=N\NC(=O)CCCCC(=O)N/N=C\c2ccc(N(C)C)cc2)cc1
inactive: [7] 94 % of control | [8] 91 % of control | [9] 91 % of control

O=C1C(Br)=C(N2CC2)C(=O)C(Br)=C1N1CC1
inactive: dose: 1.56 mg/kg/injection, schedule: Q04DX003 (ip), vehicle: saline 104 % of control | dose: 3.12 mg/kg/injection, schedule: Q04DX003 (ip), vehicle: saline 109 % of control | dose: 6.25 mg/kg/injection, schedule: Q04DX003 (ip), vehicle: saline 104 % of control | dose: 12.5 mg/kg/injection, schedule: Q04DX003 (ip), vehicle: saline 106 % of control | dose: 25.0 mg/kg/injection, schedule: Q04DX003 (ip), vehicle: saline 104 % of control | dose: 50.0 mg/kg/injection, schedule: Q04DX003 (ip), vehicle: saline 103 % of control

NC(=O)N1Cc2ccccc2CCc2ccccc2C1
inactive: [7] 98 % of control | [9] 91 % of control

Cc1cc(Br)ccc1NNS(=O)(=O)c1cccc(N)c1
inactive: [10] 98 % of control | [7] 91 % of control | dose: 200.0 mg/kg/injection, schedule: Q01DX001 (ip), vehicle: Klucel (hydroxypropylcellulose) (HPC) 107 % of control | [8] 97 % of control | dose: 400.0 mg/kg/injection, schedule: Q01DX001 (ip), vehicle: Klucel (hydroxypropylcellulose) (HPC) 91 % of control | [9] 107 % of control

COc1ccc(/C=C2\SC(=S)NC2=O)cc1OC
inactive: dose: 100.0 mg/kg/injection, schedule: Q01DX009 (ip), vehicle: saline sonified 96 % of control | [7] 98 % of control | dose: 200.0 mg/kg/injection, schedule: Q01DX009 (ip), vehicle: saline sonified 108 % of control | [8] 96 % of control | dose: 400.0 mg/kg/injection, schedule: Q01DX009 (ip), vehicle: saline sonified 94 % of control | [9] 96 % of control

Oc1cc2ccccc2c2c1ccc1ccccc12
inactive: [1] 102 % of control | [3] 111 % of control | [5] 102 % of control

O=C(Nc1cccc(O)c1)C(O)C(O)C(O)C(O)CO (configuration not stated)
inactive: [11] 97 % of control | [12] 94 % of control | [13] 91 % of control

O=N/C=C/C(=N/Nc1ccc(C(=O)O)cc1)[N+](=O)[O-]
inactive: [1] 101 % of control | [3] 93 % of control | [5] 93 % of control

CC(O)C(O)C(O)CO (configuration not stated)
inactive: [1] 96 % of control | [3] 111 % of control | [5] 94 % of control

CCOC(=O)C(C(C)=O)C(c1ccc(N(C)C)cc1)C(C(C)=O)C(=O)OCC (configuration not stated)
inactive: dose: 25.6 mg/kg/injection, schedule: Q04DX002 (ip), vehicle: saline with Tween-80 97 % of control | dose: 64.0 mg/kg/injection, schedule: Q04DX002 (ip), vehicle: saline with Tween-80 93 % of control | dose: 100.0 mg/kg/injection, schedule: Q04DX003 (ip), vehicle: saline with Tween-80 89 % of control | dose: 160.0 mg/kg/injection, schedule: Q04DX002 (ip), vehicle: saline with Tween-80 93 % of control | dose: 200.0 mg/kg/injection, schedule: Q04DX003 (ip), vehicle: saline with Tween-80 92 % of control | dose: 400.0 mg/kg/injection, schedule: Q04DX002 (ip), vehicle: saline with Tween-80 89 % of control | dose: 400.0 mg/kg/injection, schedule: Q04DX003 (ip), vehicle: saline with Tween-80 95 % of control

N#CC(C#N)=C(C#N)c1cccn1Cc1ccccc1
inactive: dose: 87.5 mg/kg/injection, schedule: Q01DX009 (ip), vehicle: carboxymethylcellulose (CMC) 96 % of control | dose: 175.0 mg/kg/injection, schedule: Q01DX009 (ip), vehicle: carboxymethylcellulose (CMC) 95 % of control | dose: 350.0 mg/kg/injection, schedule: Q01DX009 (ip), vehicle: carboxymethylcellulose (CMC) 90 % of control

COc1ccc(-c2c(CO)cc(OC)c(OC)c2OC)c(CO)c1
inactive: dose: 75.0 mg/kg/injection, schedule: Q01DX001 (ip), vehicle: saline 99 % of control | dose: 150.0 mg/kg/injection, schedule: Q01DX001 (ip), vehicle: saline 99 % of control | dose: 300.0 mg/kg/injection, schedule: Q01DX001 (ip), vehicle: saline 92 % of control

COc1ccc(CCN2CCCC2C(=O)O)cc1OC (configuration not stated)
inactive: [11] 96 % of control | [12] 94 % of control | [13] 100 % of control

Cc1nnc2ncnc(SCc3ccccc3)c2n1
inactive: dose: 12.5 mg/kg/injection, schedule: Q01DX001 (ip), vehicle: Klucel (hydroxypropylcellulose) (HPC) 100 % of control | dose: 25.0 mg/kg/injection, schedule: Q01DX001 (ip), vehicle: Klucel (hydroxypropylcellulose) (HPC) 95 % of control and 91 % of control | dose: 50.0 mg/kg/injection, schedule: Q01DX001 (ip), vehicle: Klucel (hydroxypropylcellulose) (HPC) 93 % of control | [10] 90 % of control

CCOC(=O)CCC(=O)c1cccc([N+](=O)[O-])c1
inactive: dose: 100.0 mg/kg/injection, schedule: Q01DX009 (ip), vehicle: saline with Tween-80 98 % of control | dose: 200.0 mg/kg/injection, schedule: Q01DX009 (ip), vehicle: saline with Tween-80 96 % of control | dose: 400.0 mg/kg/injection, schedule: Q01DX009 (ip), vehicle: saline with Tween-80 96 % of control

O=C(O)CC(C(=O)O)/C(=C\c1ccccc1)c1ccccc1 (configuration not stated)
inactive: [2] 94 % of control | [4] 113 % of control | [6] 110 % of control

O=c1nc2n(CCN(CCO)CCO)c3cc(Cl)c(Cl)cc3nc-2c(=O)[nH]1
inactive: dose: 5.0 mg/kg/injection, schedule: Q01DX009 (ip), vehicle: saline 107 % of control | dose: 10.0 mg/kg/injection, schedule: Q01DX001 (ip), vehicle: saline 95 % of control | dose: 10.0 mg/kg/injection, schedule: Q01DX009 (ip), vehicle: saline 93 % of control | dose: 20.0 mg/kg/injection, schedule: Q01DX001 (ip), vehicle: saline 102 % of control | dose: 20.0 mg/kg/injection, schedule: Q01DX009 (ip), vehicle: saline 104 % of control | dose: 40.0 mg/kg/injection, schedule: Q01DX001 (ip), vehicle: saline 91 % of control

O=C1OCC2C1C1CCC2C1(Cl)Cl (configuration not stated)
inactive: dose: 75.0 mg/kg/injection, schedule: Q01DX001 (ip), vehicle: other 98 % of control

CC(C)c1ccc(/C=C/C(=O)c2ccc([N+](=O)[O-])cc2)cc1
inactive: dose: 100.0 mg/kg/injection, schedule: Q04DX002 (ip), vehicle: gum acacia 98 % of control | dose: 200.0 mg/kg/injection, schedule: Q04DX002 (ip), vehicle: gum acacia 92 % of control | dose: 400.0 mg/kg/injection, schedule: Q04DX002 (ip), vehicle: gum acacia 95 % of control

CCC(CC)(CC#N)C1CCCCC1
inactive: dose: 50.0 mg/kg/injection, schedule: Q01DX001 (ip), vehicle: carboxymethylcellulose (CMC) 98 % of control | dose: 100.0 mg/kg/injection, schedule: Q01DX001 (ip), vehicle: carboxymethylcellulose (CMC) 104 % of control | dose: 200.0 mg/kg/injection, schedule: Q01DX001 (ip), vehicle: carboxymethylcellulose (CMC) 98 % of control | dose: 400.0 mg/kg/injection, schedule: Q01DX001 (ip), vehicle: carboxymethylcellulose (CMC) 104 % of control
